Test results published in ChEMBL document CHEMBL1141965, “Preparation of human Melanocortin-4 receptor agonist libraries: linear peptides X-Y-DPhe7-Arg8-Trp(or 2-Nal)9-Z-NH2” (Bioorg Med Chem Lett, 2005).
Non-standard residues stand in square brackets, D forms with d. Residues, ends and D or L forms follow the SMILES beside them. ξ: configuration not given here. *: point of attachment. Ac6c(4-Ph-cis-to-N) = N[C@]1(C(=O)O)CC[C@H](c2ccccc2)CC1; ξAtc(5-Br) = NC1(C(=O)O)CCc2c(Br)cccc2C1; Pentanoyl = CCCCC(=O)*

Assays:
Melanocortin receptor 4 [1] = biological target: T1, Melanocortin receptor 4 (Homo sapiens, UniProt P32245); test: Agonist activity at human MC4R at 100 nM; assay type: functional
T1 sequence (P32245 whole entry): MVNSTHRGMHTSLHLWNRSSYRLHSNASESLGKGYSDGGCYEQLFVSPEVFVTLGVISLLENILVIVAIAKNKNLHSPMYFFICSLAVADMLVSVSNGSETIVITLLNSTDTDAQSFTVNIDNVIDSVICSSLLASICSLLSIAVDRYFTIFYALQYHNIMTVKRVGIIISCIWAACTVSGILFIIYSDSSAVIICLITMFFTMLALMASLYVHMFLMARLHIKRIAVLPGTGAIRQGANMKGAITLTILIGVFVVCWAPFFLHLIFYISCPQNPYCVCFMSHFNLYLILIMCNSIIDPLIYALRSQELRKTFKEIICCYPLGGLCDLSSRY

[2] = biological target: T2, Melanocyte-stimulating hormone receptor (Homo sapiens, UniProt Q01726); test: Agonist activity at human MC1R at 10 uM; assay type: functional
T2 sequence (Q01726 whole entry, looked up): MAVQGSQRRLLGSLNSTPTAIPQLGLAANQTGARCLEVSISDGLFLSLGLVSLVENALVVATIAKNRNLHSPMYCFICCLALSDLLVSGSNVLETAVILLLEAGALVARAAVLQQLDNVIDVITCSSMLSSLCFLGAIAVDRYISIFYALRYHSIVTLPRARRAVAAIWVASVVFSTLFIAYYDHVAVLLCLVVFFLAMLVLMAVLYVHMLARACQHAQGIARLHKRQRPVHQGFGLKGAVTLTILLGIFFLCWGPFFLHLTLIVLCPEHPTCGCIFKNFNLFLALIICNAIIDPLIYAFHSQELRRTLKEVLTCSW

Melanocortin receptor 4 [3] = biological target: T1, Melanocortin receptor 4; test: Agonist activity in HEK293 cells transfected with human MC4R by cAMP accumulation; assay type: functional, cell-based
[4] = biological target: T2, Melanocyte-stimulating hormone receptor; test: Agonist activity at human MC1R at 50 uM; assay type: functional
[5] = biological target: T2, Melanocyte-stimulating hormone receptor; test: Agonist activity at human MC1R at 100 nM; assay type: functional

Row | Activity [2] [%] | EC50 (Melanocortin receptor 4 [3]) [nM] | SMILES | also measured
1 | 25 |  | CCCC(=O)N[C@]1(C(=O)N[C@H](Cc2ccccc2)C(=O)N[C@@H](CCCN=C(N)N)C(=O)NC(Cc2ccc3ccccc3c2)C(=O)NCc2cccc(C(N)=O)c2)CC[C@H](c2ccccc2)CC1 (some centres not stated) | Activity (Melanocortin receptor 4 [1]): > 30%
2 |  | 2 | CCCC(=O)N[C@]1(C(=O)N[C@H](Cc2ccccc2)C(=O)N[C@@H](CCCN=C(N)N)C(=O)N[C@@H](Cc2c[nH]c3ccccc23)C(=O)NCc2cccc(C(N)=O)c2)CC[C@H](c2ccccc2)CC1 | Activity [4]: 50%
3 | 75 | 3 | N=C(N)NCCC[C@H](NC(=O)[C@@H](Cc1ccccc1)NC(=O)[C@]1(NC(=O)Cc2ccccc2)CC[C@@H](c2ccccc2)CC1)C(=O)N[C@@H](Cc1c[nH]c2ccccc12)C(=O)Nc1ccccc1C(N)=O | 
4 | 30 | 2 | NC(=O)CNC(=O)[C@H](Cc1c[nH]c2ccccc12)NC(=O)[C@H](CCCN=C(N)N)NC(=O)[C@@H](Cc1ccccc1)NC(=O)[C@]1(NC(=O)Cc2ccccc2)CC[C@@H](c2ccccc2)CC1 | 
5 | 50 | 11 | N=C(N)NCCC[C@H](NC(=O)[C@@H](Cc1ccccc1)NC(=O)C1(NC(=O)Cc2ccccc2)CCc2c(Br)cccc2C1)C(=O)N[C@@H](Cc1c[nH]c2ccccc12)C(=O)Nc1ccccc1C(N)=O (some centres not stated) | 
6 |  | 15 | CCCC(=O)NC1(C(=O)N[C@H](Cc2ccccc2)C(=O)N[C@@H](CCCN=C(N)N)C(=O)N[C@@H](Cc2c[nH]c3ccccc23)C(=O)Nc2ccccc2C(N)=O)CCc2c(Br)cccc2C1 (some centres not stated) | Activity [4]: 65%
7 |  | 110 | CCCC(=O)N[C@]1(C(=O)N[C@H](Cc2ccccc2)C(=O)N[C@@H](CCCN=C(N)N)C(=O)N[C@@H](Cc2ccc3ccccc3c2)C(=O)NCc2cccc(C(N)=O)c2)CC[C@H](c2ccccc2)CC1 | 
8 |  | 3 | CCCC(=O)N[C@]1(C(=O)N[C@H](Cc2ccccc2)C(=O)N[C@@H](CCCN=C(N)N)C(=O)N[C@@H](Cc2c[nH]c3ccccc23)C(=O)N[C@@H](C)C(N)=O)CC[C@H](c2ccccc2)CC1 | Activity [4]: 25%
9 |  | 50 | CCCCC(=O)N[C@]1(C(=O)N[C@H](Cc2ccccc2)C(=O)N[C@@H](CCCN=C(N)N)C(=O)N[C@@H](Cc2ccc3ccccc3c2)C(=O)NCC(N)=O)CC[C@H](c2ccccc2)CC1 | 
10 |  | 2 | CCCCNC(=O)N[C@]1(C(=O)N[C@H](Cc2ccccc2)C(=O)N[C@@H](CCCN=C(N)N)C(=O)N[C@@H](Cc2c[nH]c3ccccc23)C(=O)NCCC(N)=O)CC[C@H](c2ccccc2)CC1 | Activity [4]: 50%
11 |  | 85 | CCCC(=O)N[C@]1(C(=O)N[C@H](Cc2ccccc2)C(=O)N[C@@H](CCCN=C(N)N)C(=O)N[C@@H](Cc2ccc3ccccc3c2)C(=O)NCc2ccc(C(N)=O)cc2)CC[C@H](c2ccccc2)CC1 | 
12 | 45 | 5 | NC(=O)CCNC(=O)[C@H](Cc1c[nH]c2ccccc12)NC(=O)[C@H](CCCN=C(N)N)NC(=O)[C@@H](Cc1ccccc1)NC(=O)[C@]1(NC(=O)Cc2ccccc2)CC[C@@H](c2ccccc2)CC1 | 

Further lines, the compound ahead of its results:

Row | SMILES | Activity [2] [%] | EC50 (Melanocortin receptor 4 [3]) [nM] | also measured
13 | CCCC(=O)N[C@]1(C(=O)N[C@H](Cc2ccccc2)C(=O)N[C@@H](CCCN=C(N)N)C(=O)NC(Cc2ccc3ccccc3c2)C(=O)NCc2ccc(C(N)=O)cc2)CC[C@H](c2ccccc2)CC1 (some centres not stated) |  |  | Activity (Melanocortin receptor 4 [1]): > 30%; Activity [4]: 15%
14 | CCCCNC(=O)N[C@]1(C(=O)N[C@H](Cc2ccccc2)C(=O)N[C@@H](CCCN=C(N)N)C(=O)N[C@@H](Cc2c[nH]c3ccccc23)C(=O)NCc2cccc(C(N)=O)c2)CC[C@H](c2ccccc2)CC1 | 60 | 2 | 
15 | CCCC(=O)NC1(C(=O)N[C@H](Cc2ccccc2)C(=O)N[C@@H](CCCN=C(N)N)C(=O)N[C@@H](Cc2ccc3ccccc3c2)C(=O)Nc2ccccc2C(N)=O)CCc2c(Br)cccc2C1 (some centres not stated) |  | 72 | 
16 | C[C@H](NC(=O)[C@H](Cc1c[nH]c2ccccc12)NC(=O)[C@H](CCCN=C(N)N)NC(=O)[C@@H](Cc1ccccc1)NC(=O)[C@]1(NC(=O)Cc2ccccc2)CC[C@@H](c2ccccc2)CC1)C(N)=O | 30 | 3 | 
17 | CCCC(=O)N[C@]1(C(=O)N[C@H](Cc2ccccc2)C(=O)N[C@@H](CCCN=C(N)N)C(=O)N[C@@H](Cc2ccc3ccccc3c2)C(=O)NCC(N)=O)CC[C@H](c2ccccc2)CC1 | 25 | 44 | Activity (Melanocortin receptor 4 [1]): > 30%
18 | N=C(N)NCCC[C@H](NC(=O)[C@@H](Cc1ccccc1)NC(=O)[C@]1(NC(=O)Cc2ccccc2)CC[C@@H](c2ccccc2)CC1)C(=O)N[C@@H](Cc1c[nH]c2ccccc12)C(=O)NCc1cccc(C(N)=O)c1 | 60 | 2 | 
19 | N=C(N)NCCC[C@H](NC(=O)[C@@H](Cc1ccccc1)NC(=O)[C@]1(NC(=O)Cc2ccccc2)CC[C@@H](c2ccccc2)CC1)C(=O)N[C@@H](Cc1c[nH]c2ccccc12)C(=O)NCc1ccc(C(N)=O)cc1 | 70 | 1 | 
20 | CCCCNC(=O)N[C@]1(C(=O)N[C@H](Cc2ccccc2)C(=O)N[C@@H](CCCN=C(N)N)C(=O)N[C@@H](Cc2c[nH]c3ccccc23)C(=O)Nc2ccccc2C(N)=O)CC[C@H](c2ccccc2)CC1 | 75 | 2 | 
21 | CCCC(=O)NC1(C(=O)N[C@H](Cc2ccccc2)C(=O)N[C@@H](CCCN=C(N)N)C(=O)NC(Cc2ccc3ccccc3c2)C(=O)Nc2ccccc2C(N)=O)CCc2c(Br)cccc2C1 (some centres not stated) |  |  | Activity (Melanocortin receptor 4 [1]): > 30%; Activity [4]: 60%
22 | CCCC(=O)NC1(C(=O)N[C@H](Cc2ccccc2)C(=O)N[C@@H](CCCN=C(N)N)C(=O)NC(Cc2ccc3ccccc3c2)C(=O)NCCC(N)=O)CCc2c(Br)cccc2C1 (some centres not stated) |  |  | Activity [5]: 40%; Activity (Melanocortin receptor 4 [1]): 32%
23 | CCCC(=O)N[C@]1(C(=O)N[C@H](Cc2ccccc2)C(=O)N[C@@H](CCCN=C(N)N)C(=O)NC(Cc2ccc3ccccc3c2)C(=O)N[C@@H](C)C(N)=O)CC[C@H](c2ccccc2)CC1 (some centres not stated) | 25 |  | EC50 (Melanocortin receptor 4 [3]; hek293): 220 nM; Activity (Melanocortin receptor 4 [1]): > 30%
24 | CCCC(=O)NC1(C(=O)N[C@H](Cc2ccccc2)C(=O)N[C@@H](CCCN=C(N)N)C(=O)NC(Cc2ccc3ccccc3c2)C(=O)NCC(N)=O)CCc2c(Br)cccc2C1 (some centres not stated) |  |  | Activity [5]: 26%; Activity (Melanocortin receptor 4 [1]): 30%
25 | CCCCNC(=O)NC1(C(=O)N[C@H](Cc2ccccc2)C(=O)N[C@@H](CCCN=C(N)N)C(=O)N[C@@H](Cc2c[nH]c3ccccc23)C(=O)Nc2ccccc2C(N)=O)CCc2c(Br)cccc2C1 (some centres not stated) | 50 | 15 | 
26 | CCCC(=O)N[C@]1(C(=O)N[C@H](Cc2ccccc2)C(=O)N[C@@H](CCCN=C(N)N)C(=O)N[C@@H](Cc2ccc3ccccc3c2)C(=O)NCCC(N)=O)CC[C@H](c2ccccc2)CC1 |  | 90 | 
27 | CCCCC(=O)NC1(C(=O)N[C@H](Cc2ccccc2)C(=O)N[C@@H](CCCN=C(N)N)C(=O)N[C@@H](Cc2c[nH]c3ccccc23)C(=O)NCC(N)=O)CCc2c(Br)cccc2C1 (some centres not stated) (Pentanoyl-[ξAtc(5-Br)][dF]RWG-NH2) |  |  | Activity [4]: 50%
28 | CCCCNC(=O)N[C@]1(C(=O)N[C@H](Cc2ccccc2)C(=O)N[C@@H](CCCN=C(N)N)C(=O)N[C@@H](Cc2c[nH]c3ccccc23)C(=O)NCC(N)=O)CC[C@H](c2ccccc2)CC1 | 55 | 2 | 
29 | CCCC(=O)N[C@]1(C(=O)N[C@H](Cc2ccccc2)C(=O)N[C@@H](CCCN=C(N)N)C(=O)NC(Cc2ccc3ccccc3c2)C(=O)NCCC(N)=O)CC[C@H](c2ccccc2)CC1 (some centres not stated) | 25 |  | Activity (Melanocortin receptor 4 [1]): > 30%
30 | CCCC(=O)N[C@]1(C(=O)N[C@H](Cc2ccccc2)C(=O)N[C@@H](CCCN=C(N)N)C(=O)N[C@@H](Cc2c[nH]c3ccccc23)C(=O)Nc2ccccc2C(N)=O)CC[C@H](c2ccccc2)CC1 | 60 | 2 | 
31 | CCCC(=O)N[C@]1(C(=O)N[C@H](Cc2ccccc2)C(=O)N[C@@H](CCCN=C(N)N)C(=O)NC(Cc2ccc3ccccc3c2)C(=O)Nc2ccccc2C(N)=O)CC[C@H](c2ccccc2)CC1 (some centres not stated) | 50 |  | Activity (Melanocortin receptor 4 [1]): > 30%
32 | CCCCC(=O)N[C@]1(C(=O)N[C@H](Cc2ccccc2)C(=O)N[C@@H](CCCN=C(N)N)C(=O)N[C@@H](Cc2c[nH]c3ccccc23)C(=O)NCC(N)=O)CC[C@H](c2ccccc2)CC1 (Pentanoyl-[Ac6c(4-Ph-cis-to-N)][dF]RWG-NH2) |  |  | Activity [4]: 25%
33 | CCCCC(=O)N[C@]1(C(=O)N[C@H](Cc2ccccc2)C(=O)N[C@@H](CCCN=C(N)N)C(=O)NC(Cc2ccc3ccccc3c2)C(=O)NCC(N)=O)CC[C@H](c2ccccc2)CC1 (some centres not stated) |  |  | Activity [4]: 60%
34 | CCCC(=O)N[C@]1(C(=O)N[C@H](Cc2ccccc2)C(=O)N[C@@H](CCCN=C(N)N)C(=O)N[C@@H](Cc2ccc3ccccc3c2)C(=O)Nc2ccccc2C(N)=O)CC[C@H](c2ccccc2)CC1 |  | 39 | 
35 | CCCC(=O)N[C@]1(C(=O)N[C@H](Cc2ccccc2)C(=O)N[C@@H](CCCN=C(N)N)C(=O)N[C@@H](Cc2c[nH]c3ccccc23)C(=O)NCc2ccc(C(N)=O)cc2)CC[C@H](c2ccccc2)CC1 | 50 | 1 | 
36 | CCCC(=O)N[C@]1(C(=O)N[C@H](Cc2ccccc2)C(=O)N[C@@H](CCCN=C(N)N)C(=O)N[C@@H](Cc2c[nH]c3ccccc23)C(=O)NCCC(N)=O)CC[C@H](c2ccccc2)CC1 |  | 5 | Activity [4]: 50%
37 | CCCCNC(=O)N[C@]1(C(=O)N[C@H](Cc2ccccc2)C(=O)N[C@@H](CCCN=C(N)N)C(=O)N[C@@H](Cc2c[nH]c3ccccc23)C(=O)N[C@@H](C)C(N)=O)CC[C@H](c2ccccc2)CC1 |  | 2 | Activity [4]: 25%
